The values below come from patent US20250213701A1, “MEDICAMENT FOR TREATING HUMAN TUMOR BASED ON ERF3A-TARGETING PROTEOLYSIS MECHANISM” (SUZHOU DEGEN BIO-MEDICAL CO., LTD., priority 2022, published 2025).

One may read the inhibition as how much of the control response was suppressed.

What all share (assay type): cell-based
One assay deals with MCF-7 cells. Kind of assay: Anti-proliferative toxicity of C63 in tumor cell lines (CCK8): MCF-7. Conditions: Homo sapiens, MCF7, 72 h, 3 days, read-out: Inhibition rate. The procedure:
(§1) Example 83: Detection of Anti-Proliferative Toxicity of C63 in Some Tumor Cell Lines
MCF-7 cells (purchased from the Cell Bank of the Chinese Academy of Sciences, Cat. No. SCSP-531) were subcultured in a culture medium (MEM medium+1% penicillin-streptomycin dual-antibiotic solution+10% fetal bovine serum+0.01 mg/mL recombinant human insulin) in an incubator at 5% carbon dioxide and 37° C.
MCF-7 cells were seeded at 5000 cells/well (90 μL) on a 96-well plate and cultured for 24 h.
(§2) 10 mM compound stock solutions were prepared in DMSO.
(§3) The compound stock solution was diluted with DMSO to give DMSO solutions 1-9 at concentrations of 0 μM, 2500 μM, 500 μM, 100 μM, 20 μM, 4 μM, 0.8 μM, 0.16 μM, and 0.032 μM.
(§4) 2 μL of each of solutions 1-9 was added to 98 μL of the medium to give mixed solutions 11-19 of the compound and the medium.
(§5) 10 μL of each of solutions 11-19 was added to the above cell seed solution to give a total volume of 100 μL (90 μL+10 μL).
(§6) The concentrations of the compound in the wells were 0 μM, 5.0 μM, 1.0 μM, 0.2 μM, 0.04 μM, 0.008 μM, 0.0016 μM, 0.00032 μM, and 0.000064 μM. All concentrations were in triplicate.
(§7) After the above-treated cells were cultured for 3 days, 10 μL of the CCK8 solution (DOJINDO, Cat. No. PF725) was added to each well. The plate was incubated in an incubator at 37° C. for 1-4 h and then detected on a microplate reader for the reading at 450 nm.

The test system of the next assay is MDA-MB-468 cells. Briefly: Anti-proliferative toxicity of C63 in tumor cell lines (CCK8): MDA-MB-468. The conditions noted are these: Homo sapiens, 72 h, 3 days, read-out: Inhibition rate. The procedure:
as §1
MDA-MB-468 cells (purchased from the Cell Bank of the Chinese Academy of Sciences, Cat. No. TCHu136) were subcultured in a culture medium (L15 medium+1% penicillin-streptomycin dual-antibiotic solution+10% fetal bovine serum) in an incubator at 37° C.
MDA-MB-468 cells were seeded at 5000 cells/well (90 μL) on a 96-well plate and cultured for 24 h.
as §2, §3, §4, §5, §6, §7

A further assay deals with Hep 3B2.1-7 cells. Briefly: Anti-proliferative toxicity of C63 in tumor cell lines (CCK8): Hep 3B2.1-7. Conditions: Homo sapiens, 72 h, 3 days, read-out: Inhibition rate. The procedure:
as §1
Hep3B2.1-7 cells (purchased from the Cell Bank of the Chinese Academy of Sciences, Cat. No. TCHu106) were subcultured in a culture medium (MEM medium+1% penicillin-streptomycin dual-antibiotic solution+10% fetal bovine serum) in an incubator at 5% carbon dioxide and 37° C.
Hep 3B2.1-7 cells were seeded at 2000 cells/well (90 μL) on a 96-well plate and cultured for 24 h.
as §2, §3, §4, §5, §6, §7

Take `C[C@]12C=CC(=O)N[C@@H]1CC[C@@H]1[C@@H]2CC[C@]2(C)[C@@H](C(=O)Nc3cccc(N[C@@H]4CCC[C@@H](Nc5cccc6c5C(=O)N([C@H]5CCC(=O)NC5=O)C6=O)C4)c3)CC[C@@H]12` [C63, N-(3-(N—(N-(4-(2-(3S-(2,6-dioxopiperidine))-isoindole-1,3-dione))-1R,3R-cyclohexanediamine))phenyl)-3-oxo-4-aza-5α-androst-1-ene-17β-carboxamide]: the inhibition at 64 pM in the assay on MCF-7 cells (0.000064 μM) is 6.61%; in the assay with MDA-MB-468 cells (0.000064 μM), 4.42%; in the assay on Hep 3B2.1-7 cells (0.000064 μM), 77.5%. For the same compound, the inhibition at 0.00032 µM in the assay with MCF-7 cells (0.000320 μM) was 14.5%; in the assay on MDA-MB-468 cells (0.000320 μM), 30.5%; with Hep 3B2.1-7 cells (0.000320 μM), 90.6%. In addition, the values for the inhibition at 0.0016 µM in the assay with MCF-7 cells (0.001600 μM), in the assay with MDA-MB-468 cells (0.001600 μM) and with Hep 3B2.1-7 cells (0.001600 μM) were 36.8%, 55.1% and 90.2%, respectively. Further, the figures for the inhibition at 0.008 µM with MCF-7 cells (0.008000 μM), with MDA-MB-468 cells (0.008000 μM) and with Hep 3B2.1-7 cells (0.008000 μM) were 46%, 64.6% and 90.4%, respectively. The inhibition at 0.04 µM in the assay with MCF-7 cells (0.040000 μM) stood at 50.2%; in the assay on MDA-MB-468 cells (0.040000 μM), 65%; in the assay on Hep 3B2.1-7 cells (0.040000 μM), 90.7%. Also, the inhibition at 0.2 µM turned out to be 54.9% with MCF-7 cells (0.200000 μM), 65.5% in the assay on MDA-MB-468 cells (0.200000 μM) and 89.6% in the assay with Hep 3B2.1-7 cells (0.200000 μM). Moreover, the figures for the inhibition at 1 µM in the assay with MCF-7 cells (1.000000 μM), in the assay with MDA-MB-468 cells (1.000000 μM) and in the assay on Hep 3B2.1-7 cells (1.000000 μM) were 57.6%, 70.2% and 90.5%, respectively. In addition, the values for the inhibition at 5 µM in the assay with MCF-7 cells (5.000000 μM), in the assay with MDA-MB-468 cells (5.000000 μM) and in the assay on Hep 3B2.1-7 cells (5.000000 μM) were 61.4%, 74% and 88.8%, respectively.
